Assay results taken from US9999218B2, “Pest control formulations and methods of making and using same” (0903608 B.C. Ltd., priority 2011, dated 2018).
Read-outs that look alike come from different tables or passages of the source.

Assays:
bed bug eggs [1] = type: in vivo, Cimex lectularius L.; conditions: […] neem oil + named solvent in isopropanol; 4 h dried residue; 3 weeks after infestation
Excerpt: Immediately after infestation, and at 1-, 2-, and 3-week intervals thereafter, the numbers of hatched and unhatched eggs present in the sealed dishes were counted and compared to other Treated Groups. One egg was counted as “hatched” for every new nymph present in the petri dish when compared with the prior interval. Table 13 compares the % egg eclosion of the treated groups at the 3-week observation interval. The maximum mortality data obtained in Example 3, above, are included for comparison purposes.

adult bed bugs [2] = type: in vivo; conditions: […] neem oil + […] named solvent in isopropanol, 4 h dried residue
adult bed bugs [3] = tested on: adult bed bugs
Protocol: This example illustrates the dry residual pesticidal activity of formulations comprising varying pesticidal natural oils (oregano, clove and cinnamon oils) with acetophenone as the polar aromatic solvent. Solutions were prepared using 5.5% by weight natural oil; the percent by weight of acetophenone indicated in Table 19 and an appropriate amount of isopropanol as a carrier diluent. The percent by weight of solvent was at a final concentration of 1.5 mol/kg. Solutions were also prepared of each natural oil alone (5.5% by weight with an appropriate amount of isopropanol as a carrier diluent), and of acetophenone alone (the percent by weight indicated in Table 19 with an appropriate amount of isopropanol as a carrier diluent). Treated Groups for each solution were prepared by treating filter paper, 90 mm in diameter, with 1.0 mL of solution and allowing it to air dry for four hours. A known number of adults (usually 10) were added to each treated dish, four hours after treatment. Bed bug mortality was assessed immediately after infestation and at 1-hour, 2-hour, 4-hour, 6-hour, 8-hour, 10 hour, 12-hour, and 24-hour intervals, and at 24-hour intervals thereafter until 14 days after infestation. Adult bed bugs were counted dead if they were unresponsive when stimulated.

adult bed bugs [4] = tested on: adult bed bugs; remark: listed apart in the source
Protocol: This example illustrates the dry residual pesticidal activity of formulations comprising further pesticidal natural oils (thyme, garlic and neem oils) with acetophenone as the polar aromatic solvent. Solutions were prepared using 5.5% by weight natural oil; the percentage by weight of organic solvent indicated in Table 20 and an appropriate amount of isopropanol as a carrier diluent. Solvent was added to a final concentration of 1.5 mol/kg. Solutions were also prepared of each natural oil alone (5.5% by weight with an appropriate amount of isopropanol as a carrier diluent), and of the polar organic solvent alone (the percent by weight indicated in Table 20 with an appropriate amount of isopropanol as a carrier diluent). Treated Groups for each solution were prepared by treating filter paper, 90 mm in diameter, with 1.0 mL of solution and allowing it to air dry for four hours. A known number of adults (usually 10) were added to each treated dish, four hours after treatment. Bed bug mortality was assessed immediately after infestation and at 1-hour, 2-hour, 4-hour, 6-hour, 8-hour, 10 hour, 12-hour, and 24-hour intervals, and at 24-hour intervals thereafter until 14 days after infestation. Adult bed bugs were counted dead if they were unresponsive when stimulated.

bed bug eggs [5] = assay: Prevention of egg emergence by various pesticidal natural oils (Example 11); type: in vivo, Cimex lectularius L.; conditions: for % Eclosion (3 weeks post-infest.): 2 h dried residue, five eggs
Protocol: Five bed bug eggs were added to each treated dish, two hours after treatment. Immediately after infestation, and at 1-, 2-, and 3-week intervals thereafter, the numbers of hatched and unhatched eggs present in the sealed dishes were counted and compared to other Treated Groups. One egg was counted as “hatched” for every new nymph present in the petri dish when compared with the prior interval. Table 12 compares the mean % egg eclosion of the treated groups at three weeks post-infestation. The maximum mortality data obtained in Example 2, above, are included for each formulation, for comparison purposes.

adult bed bugs [6] = conditions: for LT50: 2 h dried residue on filter paper; for Max Mortality: 2 h dried residue, observed until 33 days
Protocol: 1.0 mL of each solution was applied to three replicates of filter paper, 90 millimeters in diameter, contained in petri dishes (Treated Groups). Treated Groups and three replicates of an untreated Control Group were allowed to dry for two hours prior to infestation with a known number of adult bed bugs (approximately half male and half female).
Bed bug mortality was assessed immediately after infestation and at 2-, 4-, 8-, 12-, and 24-hour intervals after infestation, and daily thereafter until 33 days after infestation. Adult bed bugs were counted dead if they were unresponsive when stimulated.

[7] = 4 h dried residue on filter paper
[8] = […] by weight oil and/or 18.25% w/w acetophenone in isopropanol, 4 h dried residue on filter paper
[9] = time of maximum mortality, 4 h dried residue on filter paper
[10] = […] oil + 5.0% acetophenone + […] sodium lauryl sulphate in water
[11] = […] oil + 5.0% ethyl lactate + […] sodium lauryl sulphate in water

With `CC(=O)c1ccccc1` [Acetophenone] the “% Eclosion” value (bed bug eggs [1]) was 0%, the “Time to Max Mortality” value (adult bed bugs [2]) was 24 h and the “Max. Mortality” value (adult bed bugs [2]; observed until 14 days) was 100%. For the same compound, the LT50 (adult bed bugs [3]; [7]) was 17 h, the “Max Mortality” value (adult bed bugs [3]; [8]) was 100% and the Time (adult bed bugs [3]; [9]) was 53 h. For the same compound, the LT50 (adult bed bugs [4]; [7]) was 11 h, the “Max Mortality” value (adult bed bugs [4]; [8]) was 100% and the Time (adult bed bugs [4]; [9]) was 48 h.

For `C=CCc1ccc(O)c(OC)c1` [Eugenol], the “prevention of egg eclosion” value (bed bug eggs [5]; […] by weight oil with 5.0% acetophenone, all observation intervals) was “some increased prevention of egg emergence”, the “% Eclosion (3 weeks post-infest.)” value (bed bug eggs [5]; […] oil + 5.0% acetophenone in water) was 20% and the “% Eclosion (3 weeks post-infest.)” value (bed bug eggs [5]; […] oil + 5.0% ethyl lactate in water) was 40%. The “prevention of egg eclosion” value (bed bug eggs [5]; […] oil combined with 15.5% acetophenone by weight) was “complete prevention of egg eclosion”, the LT50 (adult bed bugs [6]; [10]) was 2.82 h and the Max Mortality (adult bed bugs [6]; [10]) was 100%. It also gave an LT50 (adult bed bugs [6]; [11]) of 9.91 h and a Max Mortality (adult bed bugs [6]; [11]) of 100%.

For Cinnamon Oil, the “Max Mortality” value (adult bed bugs [3]; in vivo) was 90% and the “Max Mortality” value (adult bed bugs [4]; in vivo) was 100%.
